# Source: US10787462B2, “Heterocyclic compound” (TAKEDA PHARMACEUTICAL COMPANY LIMITED, priority 2015, dated 2020)
# Target: T1, human RIPK1 (1-375) (Homo sapiens, UniProt Q13546)
# T1 construct: human RIPK1 (1-375) gene; GST; made in house; host or cells: Sf-9 insect cells
# T1 sequence (Q13546 1-375): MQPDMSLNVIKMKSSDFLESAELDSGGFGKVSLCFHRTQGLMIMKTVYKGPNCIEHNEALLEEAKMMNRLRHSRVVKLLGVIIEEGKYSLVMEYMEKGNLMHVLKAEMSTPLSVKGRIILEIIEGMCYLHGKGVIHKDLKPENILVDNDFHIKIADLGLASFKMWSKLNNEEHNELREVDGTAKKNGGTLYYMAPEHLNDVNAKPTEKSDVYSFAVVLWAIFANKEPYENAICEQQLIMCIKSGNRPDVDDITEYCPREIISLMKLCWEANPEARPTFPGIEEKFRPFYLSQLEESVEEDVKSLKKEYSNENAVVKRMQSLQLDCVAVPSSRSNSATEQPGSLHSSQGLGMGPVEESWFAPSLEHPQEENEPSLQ
# Test: Human RIPK1 enzyme inhibitory effect (ADP-Glo Kinase Assay)
# Assay type: biochemical
# Details: well without enzyme = 100% inhibition; for inhibition at 10 µM: read-out: human RIPK1 enzyme inhibitory effect at 10 μM (% inhibition), 10 μM test compound
# Protocol: Experimental Example 1: Human RIPK1 Enzyme Inhibitory Effect
# Enzyme was prepared by transducing human RIPK1 (1-375) gene to Sf-9 insect cells, and purifying using GST affinity column, and enzyme activity evaluation was performed using the enzyme. The enzyme was used after preservation at −70° C. The RIPK1 enzyme inhibitory activity of the test compound was measured using ADP-Glo™ Kinase Assay (Promega) according the following experiment methods. The test compound diluted with assay buffer (25 mM HEPES (pH 7.5), 10 mM MgCl2, 0.01% Tween-20, 2 mM DTT) was added to 384 well plate by each 2 μL. Next, RIPK1 enzyme solution diluted with the assay buffer was added thereto by each 2 μL, and the mixture was incubated at room temperature for 20 min. After the incubation, 0.6 mM ATP solution was added thereto by each 2 μL to initiate an enzyme reaction. The mixture was incubated at room temperature for 120 min, and ADP-Glo solution prepared according to Promega protocol was added to the 384 well plate by each 3 μL, and the reaction was performed at room temperature for 40 min. Then, Kinase-Detection solution was added to the 384 well plate by each 6 μL, and the reaction was performed at room temperature for 40 min. After the reaction, the luminescence intensity was measured by plate reader Envision (PerkinElmer).
Compound,inhibition at 10 µM [%],"human RIPK1 enzyme inhibitory effect at 10 μM (% inhibition) (10 μM test compound, 10 µM) [%]"
"CN1C(=O)[C@@H](N2CCc3cn(CC4CC(F)(F)C4)nc3C2=O)COc2ccccc21 [Example 33, (3S)-3-(2-((3,3-difluorocyclobutyl)methyl)-7-oxo-2,4,5,7-tetrahydro-6H-pyrazolo[3,4-c]pyridin-6-yl)-5-methyl-2,3-dihydro-1,5-benzoxazepin-4(5H)-one]",95,
"CN1C(=O)[C@@H](N2CCc3cn(Cc4ccccc4)nc3C2=O)COc2cc(C#N)ccc21 [Example 13, (3S)-3-(2-benzyl-7-oxo-2,4,5,7-tetrahydro-6H-pyrazolo[3,4-c]pyridin-6-yl)-5-methyl-4-oxo-2,3,4,5-tetrahydro-1,5-benzoxazepine-8-carbonitrile]",99,
"CN1C(=O)[C@@H](N2CCc3c(nn(Cc4ccccc4)c3OC(F)F)C2=O)COc2cc(C#N)ccc21 [Example 124, (32)-3-(2-benzyl-3-(difluoromethoxy)-7-oxo-2,4,5,7-tetrahydro-6H-pyrazolo[3,4-c]pyridin-6-yl)-5-methyl-4-oxo-2,3,4,5-tetrahydro-1,5-benzoxazepine-8-carbonitrile]",98,
"COc1ccc(Cn2c(Cc3ccccc3)nc3c2CCN([C@H]2COc4ccccc4N(C)C2=O)C3=O)cc1 [Example 54, (3S)-3-(2-benzyl-1-(4-methoxybenzyl)-4-oxo-1,4,6,7-tetrahydro-5H-imidazo[4,5-c]pyridin-5-yl)-5-methyl-2,3-dihydro-1,5-benzoxazepin-4(5H)-one]",93,
"CN1C(=O)[C@@H](N2CCc3c(nn(Cc4ccccc4)c3Cl)C2=O)COc2ccc(C(N)=O)cc21 [Example 81, (3S)-3-(2-benzyl-3-chloro-7-oxo-2,4,5,7-tetrahydro-6H-pyrazolo[3,4-c]pyridin-6-yl)-5-methyl-4-oxo-2,3,4,5-tetrahydro-1,5-benzoxazepine-7-carboxamide]",101,
"CN1C(=O)[C@@H](N2CCc3cn(CCc4ccccc4)nc3C2=O)COc2ccccc21 [Example 23, (3S)-5-methyl-3-(7-oxo-2-(2-phenylethyl)-2,4,5,7-tetrahydro-6H-pyrazolo[3,4-c]pyridin-6-yl)-2,3-dihydro-1,5-benzoxazepin-4(5H)-one]",91,
"Cc1c2c(nn1Cc1cnccn1)C(=O)N([C@H]1COc3ccccc3N(C)C1=O)CC2 [Example 79, (3S)-5-methyl-3-(3-methyl-7-oxo-2-(pyrazin-2-ylmethyl)-2,4,5,7-tetrahydro-6H-pyrazolo[3,4-c]pyridin-6-yl)-2,3-dihydro-1,5-benzoxazepin-4(5H)-one]",100,
"CN1C(=O)[C@@H](N2CCc3c(nn(Cc4ccccc4)c3Cl)C2=O)COc2cc(N3CCOCC3)ccc21 [Example 142, (3S)-3-(2-benzyl-3-chloro-7-oxo-2,4,5,7-tetrahydro-6H-pyrazolo[3,4-c]pyridin-6-yl)-5-methyl-8-(morpholin-4-yl)-2,3-dihydro-1,5-benzoxazepin-4(5H)-one]",100,
"CN1C(=O)C(N2CCc3c(nn(Cc4ccccc4)c3Cl)C2=O)CCc2ccncc21 (stereo not drawn) [Example 95, 3-(2-benzyl-3-chloro-7-oxo-2,4,5,7-tetrahydro-6H-pyrazolo[3,4-c]pyridin-6-yl)-1-methyl-1,3,4,5-tetrahydro-2H-pyrido[3,4-b]azepin-2-one]",,101
"CN1C(=O)[C@@H](N2CCc3cn(Cc4ccc(Cl)cc4F)nc3C2=O)COc2ccccc21 [Example 168, (3S)-3-(2-(4-chloro-2-fluorobenzyl)-7-oxo-2,4,5,7-tetrahydro-6H-pyrazolo[3,4-c]pyridin-6-yl)-5-methyl-2,3-dihydro-1,5-benzoxazepin-4(5H)-one]",100,
"CN1C(=O)[C@@H](N2CCc3c(nn(Cc4ccccc4)c3Cl)C2=O)COc2cc(-c3nccn3C)ccc21 [Example 60, (3S)-3-(2-benzyl-3-chloro-7-oxo-2,4,5,7-tetrahydro-6H-pyrazolo[3,4-c]pyridin-6-yl)-5-methyl-8-(1-methyl-1H-imidazol-2-yl)-2,3-dihydro-1,5-benzoxazepin-4(5H)-one]",100,
"CNC(=O)c1cc2c(cc1F)N(C)C(=O)[C@@H](N1CCc3c(nn(Cc4ccccc4)c3Cl)C1=O)CO2 [Example 122, (3S)-3-(2-benzyl-3-chloro-7-oxo-2,4,5,7-tetrahydro-6H-pyrazolo[3,4-c]pyridin-6-yl)-7-fluoro-N,5-dimethyl-4-oxo-2,3,4,5-tetrahydro-1,5-benzoxazepine-8-carboxamide]",101,
"CN1C(=O)[C@@H](N2CCc3cn(CC4CC4)nc3C2=O)COc2ccccc21 [Example 27, (3S)-3-(2-(cyclopropylmethyl)-7-oxo-2,4,5,7-hydro-6H-pyrazolo[3,4-c]pyridin-6-yl)-5-methyl-2,3-dihydro-1,5-benzoxazepin-4(5H)-one]",93,
"CN1C(=O)[C@@H](N2CCc3cn(Cc4cccnc4)nc3C2=O)COc2ccccc21 [Example 153, (3S)-5-methyl-3-(7-oxo-2-(pyridin-3-ylmethyl)-2,4,5,7-tetrahydro-6H-pyrazolo[3,4-c]pyridin-6-yl)-2,3-dihydro-1,5-benzoxazepin-4(5H)-one]",95,
"CN1C(=O)C(n2ccc3cn(Cc4ccccc4)nc3c2=O)CCc2ccccc21 (stereo not drawn) [Example 6, 3-(2-benzyl-7-oxo-2,7-dihydro-6H-pyrazolo[3,4-c]pyridin-6-yl)-1-methyl-1,3,4,5-tetrahydro-2H-1-benzazepin-2-one]",96,
"Cc1c2c(nn1Cc1ccccc1)C(=O)N([C@H]1COc3ccc(C#N)cc3N(C)C1=O)CC2 [Example 85, (3S)-3-(2-benzyl-3-methyl-7-oxo-2,4,5,7-tetrahydro-6H-pyrazolo[3,4-c]pyridin-6-yl)-5-methyl-4-oxo-2,3,4,5-tetrahydro-1,5-benzoxazepine-7-carbonitrile]",101,
"O=C1Nc2ccccc2CCC1N1CCn2nc(Cc3ccccc3)cc2C1=O (stereo not drawn) [Example 18, 3-(2-benzyl-4-oxo-6,7-dihydropyrazolo[1,5-a]pyrazin-5(4H)-yl)-1,3,4,5-tetrahydro-2H-1-benzazepin-2-one]",72,
"CN1C(=O)[C@@H](N2CCc3cn(Cc4ccc(C#N)cc4)nc3C2=O)COc2ccccc21 [Example 30, 4-((6-((3S)-5-methyl-4-oxo-2,3,4,5-tetrahydro-1,5-benzoxazepin-3-yl)-7-oxo-4,5,6,7-tetrahydro-2H-pyrazolo[3,4-c]pyridin-2-yl)methyl)benzonitrile]",97,
"Cc1ccccc1Cn1cc2c(n1)C(=O)N([C@H]1COc3ccccc3N(C)C1=O)CC2 [Example 22, (3S)-5-methyl-3-(2-(2-methylbenzyl)-7-oxo-2,4,5,7-tetrahydro-6 H-pyrazolo[3,4-c]pyridin-6-yl)-2,3-dihydro-1,5-benzoxazepin-4(5H)-one]",100,
"CN1C(=O)[C@@H](N2CCc3cn(Cc4cccc(F)c4)nc3C2=O)COc2ccccc21 [Example 158, (3S)-3-(2-(3-fluorobenzyl)-7-oxo-2,4,5,7-tetrahydro-6H-pyrazolo[3,4-c]pyridin-6-yl)-5-methyl-2,3-dihydro-1,5-benzoxazepin-4(5H)-one]",99,
"CN1C(=O)[C@@H](N2CCc3c(nn(Cc4cnccn4)c3Cl)C2=O)COc2cc(F)ccc21 [Example 75, (3S)-3-(3-chloro-7-oxo-2-(pyrazin-2-ylmethyl)-2,4,5,7-tetrahydro-6H-pyrazolo[3,4-c]pyridin-6-yl)-8-fluoro-5-methyl-2,3-dihydro-1,5-benzoxazepin-4(5H)-one]",101,
